Test results from patent publication US11484501B2, “Mechanochemical activated dry amorphisation by milling equilibrium between ap mesoporous silica” (priority 2015, dated 2022).

Assay: Amorphonisation of co-milled drug by X-ray diffraction and DSC
Type: physicochemical
Conditions: vibration ball mill
Procedure: Amorphonisation of co-milled IBU was confirmed by DSC and X-RD study. Drug release studies were conducted by and using USP Dissolution apparatus II and media (e.g., acetate buffer) of pH 4.5. Formation of hydrogen bond between silanol groups of SYLOID® silica and functional groups of IBU were believe to be the key to drug amorphonisation in the co-milling process. To confirm the IBU amorphonisation, X-ray diffraction study (XRD) was conducted. […] Additionally, DSC studies were conducted to understand the amorphonisation and possible interaction between silanol groups of SYLOID® silica and IBU. DSC thermograms, shown in FIGS. 5A-5B, confirmed both change in enthalpy and symmetry of peak shape.

## CC(C)Cc1ccc(C(C)C(=O)O)cc1 (stereo not shown) [IBU, ibuprofen]
  amorphonisation of the crystalline drug into an amorphous state by (co-)milling: does not result in an amorphous form
